Values after ≈ are worked out from the molar mass of the structure shown. Structures can show the parent of a compound that is named as a salt. Where two headings read alike, the source gives them in different places.
How the values were obtained:
Type in all cases: cell-based
[1] = system: Streptococcus pneumoniae ATCC 49619; experiment: Broth microdilution MIC, S. pneumoniae ATCC 49619; conditions: read-out: MIC S. pneumoniae ATCC 49619
Summary of the method: (§1)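 Broth microdilution in strain-specific test medium with ~5.0×10^5 cfu/ml inoculum, 1% DMSO and two-fold compound dilutions from 64 to 0.0625 μg/ml. Plates were held 20 hours at 37° C in ambient air. S. pneumoniae colonies were grown beforehand on blood agar in 5% CO2.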

[2] = system: Enterococcus faecalis ATCC 29212; experiment: Broth microdilution MIC, E. faecalis ATCC 29212; conditions: read-out: MIC E. faecalis ATCC 29212
Summary of the method: as §1

[3] = system: Bacillus subtilis ATCC 6633; experiment: Broth microdilution MIC, B. subtilis ATCC 6633; conditions: read-out: MIC B. subtilis ATCC 6633
Summary of the method: as §1

[4] = system: Escherichia coli ATCC 25922; experiment: Broth microdilution MIC, E. coli ATCC 25922 (MHIIB w & w/o 4 mM EDTA); conditions: for MIC: Escherichia coli, read-out: MIC E. coli ATCC 25922; for MIC E. coli ATCC 25922 + 4 mM EDTA: with 4 mM EDTA
Summary of the method: as §1

[5] = system: Staphylococcus aureus NRS384 (MRSA); experiment: Broth microdilution MIC, S. aureus NRS384 (MRSA); design: MIC NRS 384 (MRSA): unit not given here; conditions: for MIC: Staphylococcus aureus, read-out: MIC NRS 384 (MRSA)
Summary of the method: as §1

[6] = system: Staphylococcus aureus ATCC 29213 (MSSA); experiment: Broth microdilution MIC, S. aureus ATCC 29213 (MSSA); conditions: read-out: MIC S. aureus ATCC 29213 (MSSA)
Summary of the method: as §1

[7] = system: Enterococcus faecium ATCC 700221 (VRE); experiment: Broth microdilution MIC, E. faecium ATCC 700221 (VRE); design: MIC E. faecium ATCC 700221 (VRE): unit: ug/mL; conditions: for MIC: Enterococcus faecium, read-out: MIC E. faecium ATCC 700221 (VRE)
Summary of the method: as §1

[8] = ATCC49619, broth microdilution, 37° C., 20 hours
[9] = ATCC29212, broth microdilution, 37° C., 20 hours
[10] = ATCC6633, broth microdilution, 37° C., 20 hours
[11] = ATCC25922, without EDTA, broth microdilution, 37° C., 20 hours
[12] = broth microdilution, 37° C., 20 hours

Structure (SMILES)	MIC [1, 8] [µg/mL]	MIC [2, 9] [µg/mL]	MIC [3, 10] [µg/mL]	MIC [4, 11] [µg/mL]	MIC E. coli ATCC 25922 + 4 mM EDTA [4, 12] [µg/mL]	MIC [5, 12] [µg/mL]	MIC [6, 12] [µg/mL]	MIC [7, 12] [µg/mL]	MIC NRS 384 (MRSA) [5, 12]	MIC E. faecium ATCC 700221 (VRE) [7, 12]	MIC ([1]; ATCC49619, 20 h) [µg/mL]	MIC ([2]; ATCC29212, 20 h) [µg/mL]	MIC ([3]; ATCC6633, 20 h) [µg/mL]	MIC ([4]; ATCC25922, 20 h) [µg/mL]	MIC ([5]; 20 h) [µg/mL]	MIC ([6]; 20 h) [µg/mL]	MIC ([7]; 20 h) [µg/mL]
O=c1[nH]c(NCc2ccc(Cl)c(Cl)c2)nc2c(F)n[nH]c12 [Compound 54, 5-[(3,4-Dichlorophenyl)methylamino]-3-fluoro-1,6-dihydropyrazolo[4,3-d]pyrimidin-7-one]	32 (≈ 97.5 µM)	16 (≈ 48.8 µM)	4 (≈ 12.2 µM)	> 64	>64	8 (≈ 24.4 µM)	8 (≈ 24.4 µM)	4 (≈ 12.2 µM)	–	–	–	–	–	–	–	–	–
CN(C)C1CCN(CCn2ncc3nc(NCc4ccc(Cl)c(Cl)c4)[nH]c(=O)c32)CC1.Cl.Cl [Compound 67, 5-((3,4-Dichlorobenzyl)amino)-1-(2-(4-(dimethylamino)piperidin-1-yl)ethyl)-1H-pyrazolo[4,3-d]pyrimidin-7(6H)-one dihydrochloride]	8	16	8	> 64	>64	32	32	16	–	–	–	–	–	–	–	–	–
Cl.O=C(c1cn[nH]n1)N1CCC(n2ncc3nc(NCc4ccc(Cl)c(Cl)c4)[nH]c(=O)c32)CC1 [Compound 272, 1-(1-(2H-1,2,3-triazole-4-carbonyl)piperidin-4-yl)-5-((3,4-dichlorobenzyl)amino)-1H-pyrazolo[4,3-d]pyrimidin-7(6H)-one hydrochloride]	8	4	4	> 64	>64	8	16	2	–	–	–	–	–	–	–	–	–
O=c1[nH]c(NCc2ccc(Cl)c(Cl)c2)nc2cnn(-c3ncccn3)c12 [Compound 139, 5-((3,4-Dichlorobenzyl)amino)-1-(pyrimidin-2-yl)-1H-pyrazolo[4,3-d]pyrimidin-7(6H)-one]	> 64	> 64	> 64	> 64	>64	> 64	> 64	> 64	–	–	–	–	–	–	–	–	–
O=c1[nH]c(NCc2ccc(Cl)c(Cl)c2)nc2cnn(CCSCCO)c12 [Compound 104, 5-((3,4-Dichlorobenzyl)amino)-1-(2-((2-hydroxyethyl)thio)ethyl)-1H-pyrazolo[4,3-d]pyrimidin-7(6H)-one]	4 (≈ 9.65 µM)	4 (≈ 9.65 µM)	1 (≈ 2.41 µM)	> 64	>64	–	4 (≈ 9.65 µM)	–	4/4	2/2	–	–	–	–	–	–	–
O=c1[nH]c(NCc2ccc(Cl)c(Cl)c2)nc2cnn(Cc3ncccn3)c12 [Compound 114, 5-((3,4-Dichlorobenzyl)amino)-1-(pyrimidin-2-ylmethyl)-1H-pyrazolo[4,3-d]pyrimidin-7(6H)-one]	4 (≈ 9.94 µM)	16 (≈ 39.8 µM)	2 (≈ 4.97 µM)	> 64	32	–	8 (≈ 19.9 µM)	–	4/4	4/4	–	–	–	–	–	–	–
CC(=O)N1CCC(Cn2ncc3nc(NCc4ccc(Cl)c(Cl)c4)[nH]c(=O)c32)C1 (stereo not shown) [Compound 281, 1-((1-Acetylpyrrolidin-3-yl)methyl)-5-((3,4-dichlorobenzyl)amino)-1H-pyrazolo[4,3-d]pyrimidin-7(6H)-one]	2 (≈ 4.59 µM)	4 (≈ 9.19 µM)	2 (≈ 4.59 µM)	> 64	>64	–	8 (≈ 18.4 µM)	2 (≈ 4.59 µM)	4/8	–	–	–	–	–	–	–	–
O=c1[nH]c(NCc2ccc(Cl)c(Cl)c2)nc2cnn(C3CCNCC3)c12 [Compound 152, 5-((3,4-dichlorobenzyl)amino)-1-(piperidin-4-yl)-1H-pyrazolo[4,3-d]pyrimidin-7(6H)-one]	2 (≈ 5.09 µM)	16 (≈ 40.7 µM)	4 (≈ 10.2 µM)	> 64	32	16 (≈ 40.7 µM)	16 (≈ 40.7 µM)	8 (≈ 20.3 µM)	–	–	–	–	–	–	–	–	–
Cl.Cl.O=c1[nH]c(NCc2ccc(Cl)c(Cl)c2)nc2cnn(C3CCN(CC4CCNCC4)CC3)c12 [Compound 247, 5-((3,4-dichlorobenzyl)amino)-1-(1-(piperidin-4-ylmethyl)piperidin-4-yl)-1H-pyrazolo[4,3-d]pyrimidin-7(6H)-one dihydrochloride]	8	32	8	> 64	64	64	32	32	–	–	–	–	–	–	–	–	–
CS(=O)(=O)NC(=O)Cn1ncc2nc(NCc3ccc(Cl)c(Cl)c3)[nH]c(=O)c21 [Compound 165, 2-(5-((3,4-dichlorobenzyl)amino)-7-oxo-6,7-dihydro-1H-pyrazolo[4,3-d]pyrimidin-1-yl)-N-(methylsulfonyl)acetamide]	> 64	> 64	> 64	> 64	>64	> 64	> 64	> 64	–	–	–	–	–	–	–	–	–
O=c1[nH]c(NCc2ccc(Cl)c(Cl)c2)nc2cnn(CCOCCOCCO)c12 [Compound 115, 5-((3,4-Dichlorobenzyl)amino)-1-(2-(2-(2-hydroxyethoxy)ethoxy)ethyl)-1H-pyrazolo[4,3-d]pyrimidin-7(6H)-one]	16 (≈ 36.2 µM)	32 (≈ 72.3 µM)	8 (≈ 18.1 µM)	> 64	>64	32 (≈ 72.3 µM)	32 (≈ 72.3 µM)	8 (≈ 18.1 µM)	–	–	–	–	–	–	–	–	–
O=c1[nH]c(NCc2ccc(Cl)c(Cl)c2)nc2cnn(C3CCNC3)c12 (stereo not shown) [Compound 216, 5-((3,4-dichlorobenzyl)amino)-1-(pyrrolidin-3-yl)-1H-pyrazolo[4,3-d]pyrimidin-7(6H)-one TFA salt]	–	–	–	–	>64	–	–	–	–	–	4	16	4	> 64	16	16	16
O=c1[nH]c(NCc2ccc(Cl)c(Cl)c2)nc2cnn(C3CCN(c4cccnc4)CC3)c12 [Compound 163, 5-((3,4-dichlorobenzyl)amino)-1-(1-(pyridin-3-yl)piperidin-4-yl)-1H-pyrazolo[4,3-d]pyrimidin-7(6H)-one dihydrochloride]	–	–	–	–	>64	–	–	–	2/2	2/2	8	> 64	0.5	> 64	–	2	–
Cl.O=c1[nH]c(NCc2ccc(Cl)c(Cl)c2)nc2cnn(CCN3C[C@@H]4C[C@H]3CO4)c12 [Compound 68, 1-(2-((1 S,4S)-2-oxa-5-azabicyclo[2.2.1]heptan-5-yl)ethyl)-5-((3,4-dichlorobenzyl)amino)-1H-pyrazolo[4,3-d]pyrimidin-7(6H)-one hydrochloride]	4	4	1	> 64	64	4	4	–	–	4/2	–	–	–	–	–	–	–

Source: patent US10723741B1, “DNA polymerase IIIC inhibitors and use thereof” (Acurx Pharmaceuticals, LLC, priority 2018, dated 2020)
